Data published in US20080004561A1, “Method for Treating Oncological, Virulent and Somatic Diseases, Method for Controlling Treatment Efficiency, Pharmaceutical Agents and Composition for Carrying Out Said Treatment” (priority 2005, published 2008).
Entries after “also recorded” stand apart in the source; their conditions may differ.

Key:
tumor cells = experiment: In vitro effect of DNase I on tumor cells' growth; assay type: cell-based; settings: DNase I concentration up to 100 mkg/ml
Erlich carcinoma = experiment: Combined use of DNase and Doxorubicin, Erlich tumor growth (Example 3); assay type: in vivo, mice; settings: Doxorubicin 2 mg/kg intravenously once a day and/or DNase 0.5 mg/kg intraperitoneally four times a day, day 3 to 7; 7th day after transplantation
Protocol: Bovine pancreatic DNase I (Fermentas) and human recombinant DNase […]) were used. DNase I solution for injections were prepared by dissolving of DNase matrix solution in sterile phosphate buffer directly before administration. […] Blood plasma DNA of tumor-bearing mice was received according to technique described above. Highly metastatic and low metastatic stains of mice' Luice lung carcinoma and Erlich carcinoma were used. […] For tumor induction in mice, cells were cultivated until the monolayer, than were detached with trypsin-EDTA solution. Cells were washed trice by centrifuging in phosphate buffer and were resuspensed until their concentration have become 0.5×10^7/ml. Viability was defined by inclusion of methylene blue in hemocytometer. […] Mice of C57B1 line and white not thoroughbred mice from “Rappolovo” animal house were used. Weight of animals was 24-26 grams. Animals were contained in cages, for 6-7 mice per one cage on a standard diet without water restriction. LLC cells in dose of 5×10^5 in 100 mkl of phosphate buffer were injected in soft tissues of thigh. […] Group 1-10 mice transplanted with Erlich carcinoma (control). Group 2-10 mice replanted with Erlich carcinoma. […] Group 3-10 mice replanted with Erlich carcinoma. […] Group 4-10 mice replanted with Erlich carcinoma. […] Results of experiments were estimated according to tumor's growth inhibition (TGI) that were expressed in percents to control data received at last day of DNase injection with standard formula using.

blood plasma DNA = experiment: Blood plasma DNA concentration after end of DNase treatment course (Example 2); assay type: in vivo; settings: Erlich carcinoma mice
Protocol: Fresh blood plasma (not more than 3-4 hours after isolation) with anticoagulant (sodium citrate) addition was centrifuged on Ficoll-PlaquePlus (Amersham-Pharmacia) step at 1500 g for 20 minutes at room temperature. Plasma (½ of all amount) was neatly isolated avoiding touching cells sediment on ficoll step and was centrifuged at 10 000 g for 30 minutes to eliminate cells and debris. Supernatant was taken away not touching sediment and up to 1% of sarcosile, up to 50 mM of tris HCl pH 7,6, up to 20 mM EDTA, up to 400 mM NaCl and equal volume of phenol—chloroform mixture 1:1 were added. Received emulsion was incubated at 65° C. for 2 hours than phenol-chloroform was separated by centrifuging at 5000 g during 20 minutes at room temperature. Deproteinization by phenol-chloroform method was identically repeated for three times after what water phase was processed by chloroform and after it by diethyl ether.
Organic solvents' separation was done by centrifuging at 5000 g during 15 minutes. Equal part of isopropanol was added to water phase and incubated during night at 0° C.
After sedimentation nucleic acids were separated by centrifuging at 10 000 g during 30 minutes. […]
DNA was isolated by method that is mentioned above. DNA amount was spectrophotometrically measured. […]

[1] = system: DNA from biofilm matrix of Staphylococcus aureus; experiment: DNAase I processing of DNA from biofilm matrix, electrophoresis (Example 12); assay type: biochemical; settings: DNA processed for 3 hours by DNAase I at 37° C.
Excerpt: (§1) Biofilms of Escherichia coli and Staphylococcus aureus were used in experiments. Biofilms were washed off by phosphate buffer from agar. Cells and matrix were separated by centrifuging. Standard phenol-chloroform method was used for DNA extraction from matrix. DNA amount was estimated by spectrophotometric analysis with wave's length 260 nm (SF-46). Received DNA was researched by electrophoresis in 0.8% […] gel with ethidium bromide staining.
(§2) One part of received DNA was processed for 3 hours by DNAase I at 37° C. After electrophoretic separation of processed and not processed DNA it was found out that: […]

[2] = system: DNA from biofilm matrix of Escherichia coli; experiment: as above; assay type: biochemical; settings: DNA processed for 3 hours by DNAase I at 37° C.
Excerpt: as §1, §2

metastases development = settings: systemic introduction; Sugihara S. et al. (1990, 1993); cited from earlier work

## DNase
Tumor cells
  Effect on tumor cells' growth in vitro: does not cause direct cytotoxic effect; also recorded: not seen any suppressive effect
Erlich carcinoma
  T% (tumor's growth inhibition): 78%
  Tumor's volume: 20 +/− 6
Blood plasma DNA; DNase 0.5 mg/kg four times a day
  Blood plasma DNA concentration: 38.5 ng/mL
Blood plasma DNA; DNase 1 mg/kg twice a day
  Blood plasma DNA concentration: 55.1 ng/mL
[1]
  DNA band after electrophoresis: disappeared completely
[2]
  DNA band after electrophoresis: disappeared completely
Metastases development
  Metastases development: could slow metastases development
